In patent publication US20260286302A1, “METHODS FOR PRODUCING A SUPER CENTRAL MEMORY CD8 T CELL SUBTYPE BY POLY(ADP-RIBOSE) POLYMERASE (PARP) INHIBITION AND USES THEREOF” (Georgetown University, priority 2023, published 2026):

Key:
TC-1 tumors = experiment: TC-1 tumor model: tumor growth and survival; assay type: in vivo, mouse; details: for mice survived: TC-1 tumor model, day 22
Protocol: (§1) C57BL/6J mice were injected with 7×10^4 TC-1 cells per mouse or 1×10^5B16F10 cells per mouse in the right flank. Treatment in respective groups was started when tumors reached an average size of approximately 0.075 cm^3. […] Mice were treated daily with IP injection at a dose of 50 mg kg-1.
(§2) For vaccination, TC-1-specific E7 peptide (a nine amino acid peptide, […] (SEQ ID NO: 1); 100 μg per mouse per 100 μl; Celtak Bioscience) or B16-specific gp10025-33 nonamer peptide ([…] (SEQ ID NO: 2); 100 μg per mouse per 100 μl; AnaSpec) were used. Both the vaccines were mixed with a small 13-mer nonnatural pan-HLA DR-binding epitope (PADRE (SEQ ID NO: 3); aK-Cha-[…]a (SEQ ID NO: 4), where ‘a’ is d-alanine, and ‘Cha’ is 1-cyclohexylalanine, T helper epitope, 20 μg per mouse; Celtak Bioscience) and QuilA (adjuvant, 10 μg per mouse; Brenntag). For survival and therapy experiments, mice were vaccinated three times, starting at an average tumor size of 0.07 cm^3, while for immune response experiments mice were vaccinated twice with a one-week interval between vaccinations. Tumors were measured every 3-4 days using a digital vernier caliper, and the tumor volume was calculated using the formula: V=L×W2/2000, where V is tumor volume, L is the length of the tumor (longer diameter) and W is the width of the tumor (shorter diameter). Mice were monitored for tumor growth and survival. Mice were euthanized when the tumor volume reached 1.5 cm^3.

B16F10 tumors = experiment: B16F10 tumor model: tumor growth and survival; assay type: in vivo, mouse
Protocol: as §1, §2

WT CD8 T cells = WT CD8 T cells activated with anti-CD3/CD28; assay type: cell-based, mouse; details: anti-CD3/CD28 activation in the presence of PARPi, 48 h
pMel-1 CD8 T cells = experiment: RNA-sequencing of gp100-activated pMel-1 CD8 T cells; assay type: cell-based, mouse
Text: Ribo-Zero Plus Kit from Illumina® was used for stranded Total RNA Prep Ligation. This protocol involves the removal of ribosomal RNA (rRNA) using biotinylated, target-specific oligos combined with Ribo-Zero rRNA removal beads. RNA was fragmented into small pieces and the cleaved RNA fragments were copied into first strand cDNA using reverse transcriptase and random primers, followed by second strand cDNA synthesis using DNA Polymerase I and RNase H. The resulting double-strand cDNA were used as the input to a standard Illumina library prep with end-repair, adapter ligation and PCR amplification being performed to give a sequencing ready library. The final purified product was then quantitated by qPCR before cluster generation and sequencing on NovaSeq 6000 instrument.

NAD = NAD accumulation assay; assay type: cell-based, mouse; details: activated pMel-1 CD8 T cells, 48 h
Protocol: pMel-1 CD8 T cells were activated with gp100 in the presence or absence of PARPi for 48 h. Cells were washed with cold PBS and pelleted in a microcentrifuge tube by centrifuging at 2,000 rpm for 5 minutes. Cells were lysed with 400 μL of NADH/NAD extraction buffer and then centrifuged at 13,000 g for 10 minutes to remove insoluble material. The supernatants were collected and the levels of NAD in the cell lysates were estimated using the NAD/NADH Quantitation Kit according to the manufacturing kit (Millipore NAD/NADH Quantification Kit Sigma #MAK037).

**Q.** Which results are given for O=C(c1cc(Cc2n[nH]c(=O)c3ccccc23)ccc1F)N1CCN(C(=O)C2CC2)CC1 [olaparib]?
**A.** tumor growth and survival, enhancement of anti-tumor immune response of the vaccine (TC-1 tumors; TC-1, PARPi 50 mg/kg IP daily in combination with HPV E7 vaccine): significantly retarding tumor growth and prolonging survival; anti-tumor effect after depletion of CD8 T cells (TC-1 tumors; TC-1, PARPi with vaccine, CD8 T cell depleting antibodies): loss of the anti-tumor effect; mice survived (TC-1 tumors; PARPi added to the vaccine (HPV E7)): 90%; mice survived (TC-1 tumors; treatment alone): 10%; tumor growth and survival, enhancement of anti-tumor immune response of the vaccine (B16F10 tumors; B16F10, PARPi 50 mg/kg IP daily in combination with gp100 vaccine): significantly retarding tumor growth and prolonging survival; mice alive (B16F10 tumors; B16F10 tumor model, day 22, PARPi added to the vaccine (gp100)): 40%; single agent effect (B16F10 tumors; B16 model, PARPi alone): no single agent effect; generation of the CD44hiCD62Lhi population (WT CD8 T cells): also seen; genes related to OXPHOS and FAO (Acot1, Cpt1α) (pMel-1 CD8 T cells; PARPi-treated vs gp100, 48 h): significantly upregulated; genes related to the glycolysis pathway (Eno1, Aldoc, Pgk1, Gapdh) (pMel-1 CD8 T cells; PARPi-treated vs gp100, 48 h): significantly downregulated; expression of genes related to memory (Sell, Bcl2, Ccr7, Slpr1, Cd44, Tcf7, Klf2, Eomes) (pMel-1 CD8 T cells; after PARPi treatment, 48 h): significant increase; accumulation of NAD (NAD): significantly enhanced
